Measurements as given in ChEMBL document CHEMBL5236608, “Discovery and Optimization of Potent and Orally Available CTP Synthetase Inhibitors for Use in Treatment of Diseases Driven by Aberrant Immune Cell Proliferation” (J Med Chem, 2022).
Blank lines part the entries; values can stand above or below the molecule they belong to.

Key:
in vivo [1] = details: CD-1, mouse, po, 10 mg/kg
in vivo [2] = details: CD-1, mouse, po, 10 mg/kg; remark: listed apart in the source
in vivo [3] = details: CD-1, mouse, po, 10 mg/kg; remark: listed apart in the source
in vitro [4] = details: mouse, hepatocytes
in vitro [5] = details: human, Caco-2
[6] = Lipophilicity, logD of the compound at pH 7.4; assay type: physicochemical; details: buffer
[7] = Cmax in collagen-induced arthritis mouse at 10 mg/kg, po measured at day 2; assay type: ADME, organism-based; parameters: dose 10 mg/kg, time 2 day, route po; details: in vivo
[8] = AUC(0 to t) in collagen-induced arthritis mouse at 10 mg/kg, po measured at day 2; assay type: ADME, organism-based; parameters: time 2 day, dose 10 mg/kg, route po; details: in vivo
[9] = Dose normalized AUC(0 to t) in collagen-induced arthritis mouse at 10 mg/kg, po measured at day 2; assay type: ADME, organism-based; details: in vivo, 48 h, time 2 day
[10] = Cmax in collagen-induced arthritis mouse at 50 mg/kg, po measured at day 2; assay type: ADME, organism-based; parameters: dose 50 mg/kg, time 2 day, route po; details: in vivo
[11] = AUC(0 to t) in collagen-induced arthritis mouse at 50 mg/kg, po measured at day 2; assay type: ADME, organism-based; parameters: dose 50 mg/kg, time 2 day, route po; details: in vivo
[12] = Dose normalized AUC(0 to t) in collagen-induced arthritis mouse at 50 mg/kg, po measured at day 2; assay type: ADME, organism-based; details: in vivo, 48 h, time 2 day
[13] = Cmax in collagen-induced arthritis mouse at 10 mg/kg, po measured at day 9; assay type: ADME, organism-based; parameters: time 9 day, dose 10 mg/kg, route po; details: in vivo
[14] = AUC(0 to t) in collagen-induced arthritis mouse at 10 mg/kg, po measured at day 9; assay type: ADME, organism-based; parameters: time 9 day, dose 10 mg/kg, route po; details: in vivo
[15] = Dose normalized AUC(0 to t) in collagen-induced arthritis mouse at 10 mg/kg, po measured at day 9; assay type: ADME, organism-based; details: in vivo, 216 h, time 9 day
[16] = Cmax in collagen-induced arthritis mouse at 50 mg/kg, po measured at day 9; assay type: ADME, organism-based; parameters: dose 50 mg/kg, time 9 day, route po; details: in vivo
[17] = AUC(0 to t) in collagen-induced arthritis mouse at 50 mg/kg, po measured at day 9; assay type: ADME, organism-based; parameters: time 9 day, dose 50 mg/kg, route po; details: in vivo
[18] = Dose normalized AUC(0 to t) in collagen-induced arthritis mouse at 50 mg/kg, po measured at day 9; assay type: ADME, organism-based; details: in vivo, 216 h, time 9 day
[19] = Cmax in collagen-induced arthritis mouse at 10 mg/kg, po measured at day 19; assay type: ADME, organism-based; parameters: dose 10 mg/kg, time 19 day, route po; details: in vivo
[20] = AUC(0 to t) in collagen-induced arthritis mouse at 10 mg/kg, po measured at day 19; assay type: ADME, organism-based; parameters: dose 10 mg/kg, time 19 day, route po; details: in vivo
[21] = Dose normalized AUC(0 to t) in collagen-induced arthritis mouse at 10 mg/kg, po measured at day 19; assay type: ADME, organism-based; details: in vivo, 456 h, time 19 day
[22] = Cmax in collagen-induced arthritis mouse at 50 mg/kg, po measured at day 19; assay type: ADME, organism-based; parameters: dose 50 mg/kg, time 19 day, route po; details: in vivo
[23] = AUC(0 to t) in collagen-induced arthritis mouse at 50 mg/kg, po measured at day 19; assay type: ADME, organism-based; parameters: dose 50 mg/kg, time 19 day, route po; details: in vivo
[24] = Dose normalized AUC(0 to t) in collagen-induced arthritis mouse at 50 mg/kg, po measured at day 19; assay type: ADME, organism-based; details: in vivo, 456 h, time 19 day

Cmax (in vivo [1]): 0.9 µM
AUC(0-t) (in vivo [2]): 2.34 µM·h
bioavailability (in vivo [3]): 35%
hepatocyte CLint at 1 h, 1 µM (in vitro [4]): 32 µL/min/1e6 cells
SMILES: CCCOc1ccc(NC(=O)C(C)(C)c2csc(NS(=O)(=O)C3CC3)n2)cc1

Cmax (in vivo [1]): 11.1 µM
AUC(0-t) (in vivo [2]): 56.1 µM·h
bioavailability (in vivo [3]): 95%
Papp A→B at 2 h, 10 µM (in vitro [5]): 9.9 ×10⁻⁶ cm/s
hepatocyte CLint at 1 h, 1 µM (in vitro [4]): < 1 µL/min/1e6 cells
SMILES: CC(C)(C(=O)Nc1ccc(-c2cncc(C(F)(F)F)n2)cc1F)c1csc(NS(=O)(=O)C2CC2)n1

SMILES: CS(=O)(=O)Nc1nc(CC(=O)Nc2cccc(Cl)c2)cs1
pKa (physchem): 6.58

logD [6]: 2.46
Cmax [7]: 4770 ng/mL
AUC(0-t) at 48 h [8]: 15000 ng·h/mL
AUCt/dose [9]: 1503 ng·h/mL
Cmax [10]: 7830 ng/mL
AUC(0-t) at 48 h [11]: 43700 ng·h/mL
AUCt/dose [12]: 873 ng·h/mL
Cmax [13]: 3360 ng/mL
AUC(0-t) at 216 h [14]: 11900 ng·h/mL
AUCt/dose [15]: 1188 ng·h/mL
Cmax [16]: 6390 ng/mL
AUC(0-t) at 216 h [17]: 29400 ng·h/mL
AUCt/dose [18]: 587 ng·h/mL
Cmax [19]: 3570 ng/mL
AUC(0-t) at 456 h [20]: 10500 ng·h/mL
AUCt/dose [21]: 1049 ng·h/mL
Cmax [22]: 13000 ng/mL
AUC(0-t) at 456 h [23]: 52600 ng·h/mL
AUCt/dose [24]: 1052 ng·h/mL
Cmax (in vivo [1]): 5.3 µM
AUC(0-t) (in vivo [2]): 25.3 µM·h
pKa (physchem): 6.26
Papp A→B at 2 h, 10 µM (in vitro [5]): 7.1 ×10⁻⁶ cm/s
hepatocyte CLint at 1 h, 1 µM (in vitro [4]): 8 µL/min/1e6 cells
SMILES: CC(C)(C(=O)Nc1ccc(-c2cncc(C(F)(F)F)n2)cn1)c1csc(NS(=O)(=O)C2CC2)n1
